{"source": "patent US4486437A", "about": "“Phthalidyl apovincaminate with cerebral eubolic activity” (Ausonia Farmaceutici s.r.l., priority 1982, dated 1984)", "key": {"[1]": {"assay": "Enzyme hydrolysis in vitro, incubation with rat plasma", "format": "in vitro ADME", "conditions": "apovincaminic acid formed measured by gas chromatography", "from_the_text": "(§1) The pharmacokinetics of enzyme hydrolysis has been studied both in vitro and in vivo in the rat after oral administration of AP 698 labelled with tritium."}, "[2]": {"system": "hypobaric hypoxia in the mouse", "assay": "Changes in mortality caused by hypobaric hypoxia (survival time)", "format": "in vivo", "conditions": "for Survival time (mean values ± standard error): 190 mmHg, controls 72,5 ± 3,5", "method": "The experiments were conducted on mice confined in cages in which the pressure was reduced to a level (190 mmHg) which caused the death of the animals.\nAfter determining the survival time of the controls, the effects of various dosage levels of AP 698 were studied."}, "[3]": {"assay": "Acute toxicity, single administration (LD50, Litchfield and Wilcoxon method)", "conditions": "in vivo, rat, read-out: LD50 (95% confidence limit)", "from_the_text": "The toxicity of single administrations of AP 698 has been studied in the rat, treating the animals by the oral and intraperitoneal routes with various dosage levels of AP 698.\nThe LD50 values, determined by the Litchfield and Wilcoxon method (J. Pharmacol. Exp. Therap., 1949, 96, 99) are given in Table 1."}, "[4]": {"assay": "Pharmacokinetics in vivo after oral administration of tritium-labelled AP 698", "conditions": "rat; for presence in the plasma: after oral AP 698", "from_the_text": "as §1"}, "[5]": {"system": "cerebral electrical activity in the waking rabbit", "assay": "Effect on deterioration of electrogenesis by cerebral ischaemia (EEG)", "format": "in vivo"}, "isolated rabbit ileum": {"system": "isolated rabbit ileum", "assay": "Effect on the smooth musculature, isolated rabbit ileum"}, "[6]": {"conditions": "16 mg/kg i.v., N.S. (MannWhitney)"}, "[7]": {"conditions": "25,6 mg/kg i.v., significance 0.01 (MannWhitney)"}, "[8]": {"conditions": "41,0 mg/kg i.v., significance 0.01 (MannWhitney)"}, "[9]": {"conditions": "post-ischaemic phase, contrary to controls"}, "[10]": {"conditions": "treated animals vs controls, i.v."}}, "note": "Read-outs that look alike come from different tables or passages of the source.", "data": [{"smiles": "CCC12C=C(C(=O)OC3OC(=O)c4ccccc43)n3c4c(c5ccccc53)CCN(CCC1)C42", "note": "(stereo not drawn) [AP 698, 13a-ethyl-2,3,5,6,13a,13b-hexahydro-1H-indolo(3,2,1-de)pyrido(3,2,1-ij)(1,5)naphthyridin-12-phthalidyl carboxylate]", "values": [{"measurement": "half-life", "setting": "[1]", "result": 7.3, "unit": "min"}, {"measurement": "Survival time (mean values ± standard error)", "setting": "[2]; [6]", "result": "67,5 ± 2,5 sec."}, {"measurement": "Variation (survival time)", "setting": "[2]; [6]", "result": "-6,9%"}, {"measurement": "Survival time (mean values ± standard error)", "setting": "[2]; [7]", "result": "116,3 ± 13,5 sec."}, {"measurement": "Variation (survival time)", "setting": "[2]; [7]", "result": "+60,4%"}, {"measurement": "Survival time (mean values ± standard error)", "setting": "[2]; [8]", "result": "157,9 ± 33,2 sec."}, {"measurement": "Variation (survival time)", "setting": "[2]; [8]", "result": "+117,8%"}, {"measurement": "survival time, protective effect on induced hypobaric hypoxia (in words)", "setting": "[2]; mouse, various dosage levels", "result": "highly significant extension of the survival time with a substantial protective effect"}, {"measurement": "LD50", "setting": "[3]; ip, i.p.", "result": 684, "unit": "mg/kg"}, {"measurement": "LD50", "setting": "[3]; po, p.o.", "result": "> 3000", "unit": "mg/kg"}, {"measurement": "presence in the plasma", "setting": "[4]", "result": "both unchanged AP 698 and apovincaminic acid in the plasma"}, {"measurement": "half-life", "setting": "[4]; oral, plasma, read-out: half-life of unchanged AP 698", "result": 72, "unit": "min"}, {"measurement": "minimal effective dose", "setting": "[5]; Oryctolagus cuniculus, intravenous at the end of the ischaemic manoeuvre, dose-dependent, read-out: lowest dose with evident therapeutic effect", "result": 0.5, "unit": "mg/kg"}, {"measurement": "amplitude of the theta rhythm", "setting": "[5]; between the 10th and 20th minutes, contrary to controls", "result": "not reduced"}, {"measurement": "(theta+beta)/(delta+alpha) ratios", "setting": "[5]; between the 14th and the 25th minutes, vs controls", "result": "decrease less than in the controls"}, {"measurement": "frequency of the theta rhythm", "setting": "[5]; [9]", "result": "not increased"}, {"measurement": "relative representation times (theta rhythm)", "setting": "[5]; [9]", "result": "not dispersed"}, {"measurement": "beta rhythm", "setting": "[5]; post-ischaemic phase, vs controls", "result": "less reduced than in the controls"}, {"measurement": "recovery of the EEG and of the cortical reactivity to stimulation", "setting": "[5]; [10]", "result": "quicker recovery"}, {"measurement": "return to a trace comparable to that recorded before the ischaemic manoeuvre", "setting": "[5]; [10]", "result": "return in a shorter time"}, {"measurement": "myorelaxant activity", "setting": "isolated rabbit ileum; isolated rabbit ileum, compared with vincamine under the same conditions", "result": "considerable myorelaxant activity, decidedly higher than that displayed by vincamine"}, {"measurement": "effect on the tonus and amplitude of the contractions, compared with vincamine", "setting": "isolated rabbit ileum; musculature in basal conditions and made hypertonic with sodium or serotonin", "result": "greater effect"}]}, {"smiles": "CCC12C=C(C(=O)O)n3c4c(c5ccccc53)CCN(CCC1)C42", "note": "(stereo not drawn) [apovincaminic acid]", "values": [{"measurement": "levels of apovincaminic acid following the administration of AP 698", "setting": "[4]", "result": "persistent levels"}, {"measurement": "presence in the plasma", "setting": "[4]", "result": "both unchanged AP 698 and apovincaminic acid in the plasma"}]}]}
